# Experimental data from patent publication US5498405A, “Indole alkaloids useful as UV protective and anti-inflammatory agents” (The Regents of the University of California, priority 1995, dated 1996).
# Legend:
# [1] = tested on: mouse ear edema (Phorbol 12-myristate 13-acetate, PMA); test: Inhibition of PMA-induced inflammation (edema) of the mouse ear; type: in vivo; details: PMA 2 μg/ear, 3 hours, 20 minutes
# Method: Inhibition of Inflammation (Edema) of the Mouse Ear
# Compounds 1 and 1R were topically applied in acetone to the inside pinnae of the ears of mice in a solution containing the edema-causing irritant, Phorbol 12-myristate 13-acetate (PMA). […] After 3 hours, 20 minutes incubation, the mice were sacrificed, the ears removed and bores taken and weighed. Edema was measured by subtracting the weight of the right ear (acetone control) from the weight of the left ear (treated). Results are recorded as % decrease (inhibition)or % increase (potentiation) in edema relative to the PMA control group edema.
# myeloperoxidase (MPO) = test: Myeloperoxidase (MPO) enzyme assay in ear biopsies from treated mice; type: in vivo, mouse; details: pooled ear bores
# Text: Myeloperoxidase (MPO) Enzyme Assay
# The neutrophil-specific marker released from primary granules, myeloperoxidase (MPO), in ear biopsies from treated and untreated mouse ears was extracted and quantitated according to a modified method of Bradley, P. O., Priebat, D. A., Christensen, R. D. and Rothstein, G., "Measurement of cutaneous inflammation estimation of neutrophil content with an enzyme marker," J. Invest Dermatology 78: 206-209, 1982. This enzyme is indicative of the extravasation of pro-inflammation neutrophils from blood into the skin. Ear bores from each treatment group from mouse ear edema assays were pooled and homogenized in 80 mM sodium phosphate buffer (pH 5.4) containing 0.5% hexadecyltrimethylammonium bromide in a siliconized glass test tube for 1 min. at 0° C. using a Brinkman Polytron. The mixtures were centrifuged at 10,000×g at 4° C. for 30 min. Samples (10 μl) from each group were then assayed in a 96-well microtiter plate. The assay was initiated by adding 250 μl of o-dianisi-dine/phosphate reagent (0.28 mg of dianisidine added to 1 ml of 50 mM sodium phosphate containing […]) to each well. After a 30 minutes incubation of 37° C., the plates were read at 450 nm on a Molecular Devices microplate reader. Diluted control biopsies were utilized to develop a standard curve. Optical density values from drug-treated groups were compared to control groups to determine % of control values of enzyme activity.
# Solubility = type: physicochemical; details: after mild reduction (e.g., ascorbic acid)
smiles,measurement,setting,value
O=C1C(=Cc2ccc(O)cc2)c2[nH]c3ccccc3c2C1=C1C(=O)C(=Cc2ccc(O)cc2)C2=Nc3ccccc3C21 (centres unmarked) [Compound 1R],Dose Response Inhibition of Mouse Ear Edema,[1]; topical dose 1 ug/ear,22%
same,Dose Response Inhibition of Mouse Ear Edema,[1]; topical dose 5 ug/ear,17%
same,Dose Response Inhibition of Mouse Ear Edema,[1]; topical dose 10 ug/ear,49%
same,Dose Response Inhibition of Mouse Ear Edema,[1]; topical dose 50 ug/ear,94%
same,Inhibition of Mouse Ear Edema,[1]; topical dose 50 ug/ml (so in the source),94%
same,Dose Response Inhibition of Mouse Ear Edema,[1]; topical dose 100 ug/ear,95%
same,"MPO Enzyme Activity, % of Control",myeloperoxidase (MPO); dose 1 ug/ear,81%
same,"MPO Enzyme Activity, % of Control",myeloperoxidase (MPO); dose 5 ug/ear,82%
same,"MPO Enzyme Activity, % of Control",myeloperoxidase (MPO); dose 10 ug/ear,32%
same,"MPO Enzyme Activity, % of Control",myeloperoxidase (MPO); dose 100 ug/ear,10%
same,Solubility properties relative to Compound 1,Solubility,slightly improved solubility properties
